As usually defined, the chromatographic logP is lipophilicity estimated from chromatographic retention. Lower therefore signals a more hydrophilic compound.

Each structure is given as a SMILES string.

The first data set can be described thus: logP determination by retention times (calibration with alkan-2-ones).
Conditions: not given
The compound `CCOC(=O)c1cccc(Nc2nccc(-c3sc(C4CC4)nc3C)n2)c1` [Example 374, ethyl-3-{[4-(2-cyclopropyl-4-methyl-1,3-thiazol-5-yl)pyrimidin-2-yl]amino}benzoate] showed a chromatographic logP of 3.56. With `Cc1nc(C2CC2)sc1-c1ccnc(Nc2ccc(F)cc2)n1` [Example 227, 4-(2-cyclopropyl-4-methyl-1,3-thiazol-5-yl)-N-(4-fluorophenyl)pyrimidine-2-amine], the chromatographic logP is 3.31. For the compound `COCc1nc(C)c(-c2ccnc(Nc3cccc(C(C)=O)c3)n2)s1` [Example 24, 1-[3-({4-[2-(methoxymethyl)-4-methyl-1,3-thiazol-5-yl]pyrimidin-2-yl}amino)phenyl]ethanone], the chromatographic logP is 2.38. `Cc1nc(C)c(-c2ccnc(Nc3ccc4c(c3)OCCO4)n2)s1` [Example 387, N-(2,3-dihydro-1,4-benzodioxin-6-yl)-4-(2,4-dimethyl-1,3-thiazol-5-yl)pyrimidine-2-amine] registered a chromatographic logP of 2.34. The compound `Cc1nc(C2CC2)sc1-c1ccnc(Nc2ccc3c(c2)OCCO3)n1` [Example 220, 4-(2-cyclopropyl-4-methyl-1,3-thiazol-5-yl)-N-(2,3-dihydro-1,4-benzodioxin-6-yl)pyrimidine-2-amine] came in with a chromatographic logP of 2.91. On to `Cc1nc(C2CC2)sc1-c1ccnc(Nc2ccc(C(F)(F)F)cc2)n1` [Example 230, 4-(2-cyclopropyl-4-methyl-1,3-thiazol-5-yl)-N-[4-(trifluoromethyl)phenyl]pyrimidine-2-amine], for which the chromatographic logP was determined as 4.2. Compound `Cc1nc(C)c(-c2ccnc(Nc3ccc(C(F)(F)F)cc3)n2)s1` [Example 189, 4-(2,4-dimethyl-1,3-thiazol-5-yl)-N-[4-(trifluoromethyl)phenyl]pyrimidine-2-amine] displayed a chromatographic logP of 3.56. Consider `COCC(C)Nc1nc(C)c(-c2ccnc(Nc3cccc(OC)c3)n2)s1` (stereo not drawn) [Example 333, 4-{2-[(2-methoxy-1-methylethyl)amino]-4-methyl-1,3-thiazol-5-yl}-N-(3-methoxyphenyl)pyrimidine-2-amine], for which the chromatographic logP was 2.03.

Still in this data set, the particulars now being: * HPLC reversed-phase C18, 40° C., mobile phase 0.1% aqueous formic acid and acetonitrile, linear gradient 10% to 95% acetonitrile.
Turning to `CC(=O)Nc1cccc(Nc2nccc(-c3sc(N(C)C)nc3C)n2)c1` [Example 762, N-[3-({4-[2-(dimethylamine)-4-methyl-1,3-thiazol-5-yl]pyrimidin-2-yl}amino)phenyl]acetamide], the logP is 1.42*. `Cc1cc(Nc2nccc(-c3sc(N(C)C)nc3C(F)(F)F)n2)ccc1F` [Example 692, 4-[2-(dimethylamine)-4-(trifluoromethyl)-1,3-thiazol-5-yl]-N-(4-fluoro-3-methylphenyl)pyrimidine-2-amine]: the logP is listed as 4.43*. For the compound `Cc1nc(N(C)C)sc1-c1ccnc(Nc2cccc(Cl)c2)n1` [Example 687, N-(3-chlorophenyl)-4-[2-(dimethylamine)-4-methyl-1,3-thiazol-5-yl]pyrimidine-2-amine], the logP is listed as 2.62*. On the same count and under the same terms, with `CN(C)c1nc(C(F)(F)F)c(-c2ccnc(Nc3cccc(N4CCCC4=O)c3)n2)s1` [Example 775, 1-[3-({4-[2-(dimethylamine)-4-(trifluoromethyl)-1,3-thiazol-5-yl]pyrimidin-2-yl}amino)phenyl]pyrrolidin-2-one] the figure was 3.07*.

The data set is the same for the next values; noted with them: logP, * HPLC reversed-phase C18, 40° C., mobile phase 0.1% aqueous formic acid and acetonitrile, linear gradient 10% to 95% acetonitrile.
The compound `CSc1nc(C)c(-c2ccnc(Nc3cccc(Cl)c3)n2)s1` [Example 435, N-(3-chlorophenyl)-4-[4-methyl-2-(methylthio)-1,3-thiazol-5-yl]pyrimidine-2-amine] had a chromatographic logP of 4.08.

For the compound `Cc1nc(C2CC2)sc1-c1ccnc(Nc2cccc(N(C)C)c2)n1` [Example 554, N′-[4-(2-cyclopropyl-4-methyl-1,3-thiazol-5-yl)pyrimidin-2-yl]-N,N-dimethylbenzene-1,3-diamine], the chromatographic logP worked out at 2.19. The compound `COCCNc1nc(C)c(-c2ccnc(Nc3cccc(OC)c3)n2)s1` [Example 681, 4-{2-[(2-methoxyethyl)amino]-4-methyl-1,3-thiazol-5-yl}-N-(3-methoxyphenyl)pyrimidine-2-amine] came in with a chromatographic logP of 1.86. For the compound `COCCNc1nc(C)c(-c2ccnc(Nc3ccc(NS(C)(=O)=O)cc3)n2)s1` [Example 691, N-{4-[(4-{2-[(2-methoxyethyl)amino]-4-methyl-1,3-thiazol-5-yl}pyrimidin-2-yl)amino]phenyl}methanesulphonamide], the chromatographic logP is 1.39. `COCc1nc(C)c(-c2ccnc(Nc3ccc(Cl)cc3)n2)s1` [Example 465, N-(4-chlorophenyl)-4-[2-(methoxymethyl)-4-methyl-1,3-thiazol-5-yl]pyrimidine-2-amine] yielded a chromatographic logP of 3.29. With `COc1cc(Nc2nccc(-c3sc(-c4cccnc4)nc3C)n2)cc(OC)c1OC` [Example 713, 4-(4-methyl-2-pyridin-3-yl-1,3-thiazol-5-yl)-N-(3,4,5-trimethoxyphenyl)pyrimidine-2-amine], the chromatographic logP came out at 2.56. Still for that read-out and setting: the result for `COCC(C)Nc1nc(C)c(-c2ccnc(Nc3ccc(C(C)=O)cc3)n2)s1` (stereo not drawn) [Example 729, 1-{4-[(4-{2-[(2-methoxy-1-methylethyl)amino]-4-methyl-1,3-thiazol-5-yl}pyrimidin-2-yl)amino]phenyl}ethanone] reads 1.92; that for `CCc1nc(C)c(-c2ccnc(Nc3cncc(C)c3)n2)s1` [Example 747, 4-(2-ethyl-4-methyl-1,3-thiazol-5-yl)-N-(5-methylpyridin-3-yl)pyrimidine-2-amine], 1.41; that for `COCc1nc(C)c(-c2ccnc(Nc3cccc(Cl)c3)n2)s1` [Example 432, N-(3-chlorophenyl)-4-[2-(methoxymethyl)-4-methyl-1,3-thiazol-5-yl]pyrimidine-2-amine], 3.24. With `COc1cc(Nc2nccc(-c3sc(NCC4CCCO4)nc3C)n2)cc(OC)c1` (stereo not drawn) [Example 719, N-(3,5-dimethoxyphenyl)-4-{4-methyl-2-[(tetrahydrofuran-2-ylmethyl)amino]-1,3-thiazol-5-yl}pyrimidine-2-amine], the chromatographic logP was determined as 2.02. The compound `Cc1nc(NCC2CCCO2)sc1-c1ccnc(Nc2cccc(Cl)c2)n1` (stereo not drawn) [Example 443, N-(3-chlorophenyl)-4-{4-methyl-2-[(tetrahydrofuran-2-ylmethyl)amino]-1,3-thiazol-5-yl}pyrimidine-2-amine] came in with a chromatographic logP of 2.36. `COCCNc1nc(C)c(-c2ccnc(Nc3cc(OC)c(OC)c(OC)c3)n2)s1` [Example 679, 4-{2-[(2-methoxyethyl)amino]-4-methyl-1,3-thiazol-5-yl}-N-(3,4,5-trimethoxyphenyl)pyrimidine-2-amine] gave a chromatographic logP of 1.74.

`CSc1nc(C)c(-c2ccnc(Nc3ccc(F)c(C)c3)n2)s1` [Example 481, N-(4-fluoro-3-methylphenyl)-4-[4-methyl-2-(methylthio)-1,3-thiazol-5-yl]pyrimidine-2-amine] registered a chromatographic logP of 3.89. Regarding `COCCCNc1nc(C)c(-c2ccnc(Nc3cccc(Cl)c3)n2)s1` [Example 726, N-(3-chlorophenyl)-4-{2-[(3-methoxypropyl)amino]-4-methyl-1,3-thiazol-5-yl}pyrimidine-2-amine], the chromatographic logP was 2.28. As for `CC(=O)N(Cc1cccc(N(C(C)=O)c2nccc(-c3sc(C4CC4)nc3C)n2)c1)C(C)=O` [Example 622, N-acetyl-N-(3-{acetyl[4-(2-cyclopropyl-4-methyl-1,3-thiazol-5-yl)pyrimidin-2-yl]amino}benzyl)acetamide], the chromatographic logP was found to be 2.39.

The compound `COCc1nc(C)c(-c2ccnc(Nc3ccc(NC(C)=O)cc3)n2)s1` [Example 544, N-[4-({4-[2-(methoxymethyl)-4-methyl-1,3-thiazol-5-yl]pyrimidin-2-yl}amino)phenyl]acetamide] had a chromatographic logP of 1.8. The compound `Cc1nc(C)c(-c2ccnc(Nc3ccc(N(C)C)cc3)n2)s1` [Example 552, N′-[4-(2,4-dimethyl-1,3-thiazol-5-yl)pyrimidin-2-yl]-N,N-dimethylbenzene-1,4-diamine] registered a chromatographic logP of 1.41. On the same count and under the same terms, with `CCc1nc(C)c(-c2ccnc(Nc3ccc(OCC(C)(C)C)nc3)n2)s1` [Example 721, N-[6-(2,2-dimethylpropoxy)pyridin-3-yl]-4-(2-ethyl-4-methyl-1,3-thiazol-5-yl)pyrimidine-2-amine] the figure was 4.23.

Staying with this data set, now noted: logP, values marked *: HPLC on reversed-phase C 18, 40° C., mobile phase 0.1% aqueous formic acid and acetonitrile, linear gradient 10% to 95% acetonitrile.
The compound `COCCCNc1nc(C)c(-c2ccnc(Nc3ccc(NC(C)=O)cc3)n2)s1` [Example 854, N-{4-[(4-{2-[(3-methoxypropyl)amino]-4-methyl-1,3-thiazol-5-yl}pyrimidin-2-yl)amino]phenyl}acetamide] came in with a chromatographic logP of 1.4. Turning to `CCc1nc(C)c(-c2ccnc(Nc3ccc(N(C)C)cc3)n2)s1` [Example 879, N′-[4-(2-ethyl-4-methyl-1,3-thiazol-5-yl)pyrimidin-2-yl]-N,N-dimethylbenzene-1,4-diamine], the chromatographic logP stood at 1.56. `CCc1nc(C)c(-c2nc(Nc3ccc(Cl)cc3)ncc2Cl)s1` [Example 877, 5-chloro-N-(4-chlorophenyl)-4-(2-ethyl-4-methyl-1,3-thiazol-5-yl)pyrimidine-2-amine] registered a chromatographic logP of 4.48.

The compound `COCC(C)Nc1nc(C)c(-c2ccnc(Nc3ccc(S(N)(=O)=O)cc3)n2)s1` (stereo not drawn) [Example 864, 4-[(4-{2-[(2-methoxy-1-methylethyl)amino]-4-methyl-1,3-thiazol-5-yl}pyrimidin-2-yl)amino]benzenesulphonamide] returned a chromatographic logP of 1.49.

As to `COCCOc1nc(C)c(-c2ccnc(Nc3ccc(OC)nc3)n2)s1` [Example 915, 4-[2-(2-methoxyethoxy)-4-methyl-1,3-thiazol-5-yl]-N-(6-methoxypyridin-3-yl)pyrimidine-2-amine], the chromatographic logP was 2.34. As for `COCCCNc1nc(C)c(-c2ccnc(Nc3ccc(C(C)=O)cc3)n2)s1` [Example 855, 1-{4-[(4-{2-[(3-methoxypropyl)amino]-4-methyl-1,3-thiazol-5-yl}pyrimidin-2-yl)amino]phenyl}ethanone], the chromatographic logP was 1.81.

Values taken from patent US20090030024A1, “THIAZOLES AS FUNGICIDES” (priority 2005, published 2009).
